In patent US11555175B2, “Cell culture methods and media comprising N-acetylcysteine” (Medimmune, LLC, priority 2014, dated 2023):

Tests used:
Type in all cases: cell-based
[1] = test system: NS0 Cell Line 1 (expressing an anti-IL-9 antibody); assay: Cell doubling time of NS0 Cell Line 1 during cell expansion with NAC-supplemented medium
Excerpt: (§1) To investigate the role of N-Acetylcysteine on thaw recovery, cell viability, cell growth and cell doubling time on subsequent passaging, the following methods were used. Three different NS0 cell lines cultured in one to three different Animal Protein Free (“APF”) media were investigated to study the effect of N-acetylcysteine (NAC) on cell growth at vial thaw and during routine cell expansion. One of the cell lines was a NS0 null host cell that had not been transformed to express a recombinant protein (NS0 Null Cell Line). The other two NS0 cell lines were engineered to express a therapeutic recombinant protein: NS0 Cell Line 1 (expressing an anti-IL-9 antibody) and NS0 Cell Line 2 (expressing BAK502G9, an anti-IL-13 antibody). NS0 Cell Line 1 was thawed and expanded in two different APF media (APF Medium 1 or APF Medium 2) supplemented with various concentrations of NAC ranging from 1.5 mM to 2.5 mM. NS0 Cell Line 2 was thawed and expanded in three different APF media (APF Medium 1, APF Medium 2 or a commercially available NS0 cell culture media (CD Hybridoma+cholesterol from Invitrogen/Gibco)) supplemented with NAC ranging from 0.5 mM to 2.5 mM, while the untransformed host cell line (NS0 Null Cell Line) was thawed in APF medium 2 supplemented with NAC ranging from 0.5 mM to 1.5 mM. NAC was obtained from Sigma and was either added to the medium directly or dissolved in water at 100 mM concentration before adding to the media at the appropriate concentration. All three media (APF Medium 1, APF Medium 2, and CD Hybridoma+cholesterol from Invitrogen/Gibco) supported growth of NS0 cells, as illustrated in FIGS. 1-12. APF Medium 1 and APF Medium 2 contain standard cell culture components including: amino acids, vitamins, lipids, sugar, small peptides, pH buffer, trace metals, inorganic salts, nucleotides, nucleotide precursors, surfactants, reducing agents, cholesterol, lipids and antioxidants.
(§2) Viable cell densities during the first 3 to 4 days (i.e. exponential growth phase) at each passage were used to calculate population doubling times during both the first few days after the vial thaw while the cells were recovering from the thaw and during subsequent cell passages when the cells have fully recovered and reached a consistent doubling time from passage to passage.
NS0 cells (i.e. NS0 Cell Line 1) expressing an anti-IL-9 monoclonal antibody were cultured in animal-protein free (APF) medium (i.e. APF media 1 or APF media 2). The cells used in the vial thaw studies described in Example 1 were split into the same media (APF media 1 or APF media 2 supplemented with various concentrations of N-acetylcysteine) and allowed to recover in subsequent passages until a consistent doubling time from passage to passage was achieved. Viable cell density during exponential growth phase after recovery was used to calculate average cell doubling time as described in Example 1.

[2] = test system: NS0 Cell Line 2 (expressing BAK502G9, an anti-IL-13 antibody); assay: Cell doubling time of NS0 Cell Line 2 during cell expansion with NAC-supplemented medium
Excerpt: as §1, §2
NS0 cells (i.e. NS0 Cell Line 2) expressing a monoclonal antibody (i.e. BAK502G9, an anti-IL-13 antibody) were cultured in animal-protein free (APF) medium (i.e. APF media 1, APF media 2 or CD Hybridoma medium (Gibco) supplemented with cholesterol (1× Invitrogen Cholesterol Lipid Concentrate)). The cells used in the vial thaw studies described in Example 2 were split into the same media (APF media 1, APF media 2 or CD Hybridoma medium+cholesterol) supplemented with various concentrations of N-acetylcysteine and allowed to recover in subsequent passages until a consistent doubling time from passage to passage was achieved. Viable cell density during exponential growth phase after recovery was used to calculate average cell doubling time as described in Example 1.

NS0 Null Cell Line [3] = assay: Cell doubling time of NS0 Null Cell Line at vial thaw with NAC-supplemented medium; details: for cell doubling time at vial thaw: control medium 67.8 hours
Excerpt: as §1
(§3) Prior to vial thaw, media were temperature and pH equilibrated for a minimum of 1 hour in a 6% CO2 incubator at 37° C. with agitation at 120 rpm on a shaker. Vials were thawed using a 37° C. water bath and the entire contents were transferred equilibrated media. A cell count using Beckman Vi-Cell (an image-based cell viability analyzer) was obtained to measure the viable cell density and viability.
as §2
NS0 cells (i.e. NS0 Null Cell Line) not transfected with a heterologous protein were in a frozen stock. Frozen NS0 Null Cell Line cells were thawed in animal-protein free (APF) medium (i.e. APF media 2) supplemented with various concentrations of N-acetylcysteine (NAC) and viable cell density during exponential growth phase was used to calculate average cell doubling time as described in Example 1.

[4] = test system: NS0 Cell Line 2 (expressing BAK502G9, an anti-IL-13 antibody); assay: Cell doubling time of NS0 Cell Line 2 at vial thaw with NAC-supplemented medium
Excerpt: as §1, §3, §2
NS0 cells (i.e. NS0 Cell Line 2) expressing a monoclonal antibody (i.e. BAK502G9, an anti-IL-13 antibody) were in a frozen stock. Frozen NS0 Cell Line 2 cells were thawed in animal-protein free (APF) medium (i.e. APF media 1, APF media 2 or CD Hybridoma medium (Gibco) supplemented with cholesterol (1× Invitrogen Cholesterol Lipid Concentrate)) supplemented with various concentrations of N-acetylcysteine (NAC) and viable cell density during exponential growth phase was used to calculate average cell doubling time as described in Example 1.

[5] = test system: NS0 Cell Line 1 (expressing an anti-IL-9 antibody); assay: Cell doubling time of NS0 Cell Line 1 at vial thaw with NAC-supplemented medium; details: for average cell doubling time at vial thaw: control medium 57.6 hours; for cell doubling time at vial thaw: control medium 109.8 hours
Excerpt: as §1, §3, §2
NS0 cells (i.e. NS0 Cell Line 1) expressing an anti-IL-9 monoclonal antibody were in a frozen stock. Frozen NS0 Cell Line 1 cells were thawed in animal-protein free (APF) medium (i.e. APF media 1 or APF media 2) supplemented with various concentrations of N-acetylcysteine (NAC) and viable cell density during exponential growth phase was used to calculate average cell doubling time as described above.

NS0 Null Cell Line [6] = assay: Cell doubling time of NS0 Null Cell Line during cell expansion with NAC-supplemented medium; details: for Average Doubling Time: APF Medium 2, during expansion, 0.0 mM control 31.9
Excerpt: as §1, §2
NS0 cells (i.e. NS0 Null Cell Line) not transfected with a heterologous protein were cultured in animal-protein free (APF) medium (i.e. APF media 2). The cells used in the vial thaw studies described in Example 3 were split into the same media (APF media 2 supplemented with various concentrations of N-acetylcysteine) and allowed to recover in subsequent passages until a consistent doubling time from passage to passage was achieved. Viable cell density during exponential growth phase after recovery was used to calculate average cell doubling time as described in Example 1.

[7] = during expansion, about 1.5 mM to about 2.5 mM NAC, APF media 1 and 2
[8] = during expansion, about 0.5 mM to about 2.5 mM NAC, three media
[9] = vial thaw, 0.5 mM to 1.5 mM NAC, APF medium 2
[10] = vial thaw, about 0.5 mM to about 2.5 mM NAC, three media, vs control medium
[11] = vial thaw, about 1.5 mM to about 2.5 mM NAC, APF media 1 and 2, vs control medium

Compound: CC(=O)N[C@@H](CS)C(=O)O [NAC, (2R) -2-acetamido-3-sulfanylpropanoic acid]
- Average Doubling Time ([1]; APF Medium 1, during expansion, 1.5 mM NAC, 0.0 mM control 47.0): 42.3 h
- Average Doubling Time ([1]; APF Medium 1, during expansion, 2.0 mM NAC, 0.0 mM control 47.0): 46.1 h
- Average Doubling Time ([1]; APF Medium 1, during expansion, 2.5 mM NAC, 0.0 mM control 47.0): 63.6 h
- Average Doubling Time ([1]; APF Medium 2, during expansion, 1.5 mM NAC, 0.0 mM control 44.3): 34.8 h
- Average Doubling Time ([1]; APF Medium 2, during expansion, 2.0 mM NAC, 0.0 mM control 44.3): 34.6 h
- Average Doubling Time ([1]; APF Medium 2, during expansion, 2.5 mM NAC, 0.0 mM control 44.3): 34.8 h
- cell growth [1, 7]: increases
- cell viability [1, 7]: increases
- Average Doubling Time ([2]; APF Medium 1, during expansion, 0.5 mM NAC, 0.0 mM control 41.7): 35.4 h
- Average Doubling Time ([2]; APF Medium 1, during expansion, 1.0 mM NAC, 0.0 mM control 41.7): 31.2 h
- Average Doubling Time ([2]; APF Medium 1, during expansion, 2.5 mM NAC, 0.0 mM control 41.7): 31.2 h
- Average Doubling Time ([2]; APF Medium 2, during expansion, 0.5 mM NAC, 0.0 mM control 38.1): 30.2 h
- Average Doubling Time ([2]; APF Medium 2, during expansion, 1.0 mM NAC, 0.0 mM control 38.1): 28.8 h
- Average Doubling Time ([2]; APF Medium 2, during expansion, 2.0 mM NAC, 0.0 mM control 38.1): 31.5 h
- Average Doubling Time ([2]; Invitrogen CD Hybridoma Medium supplemented with cholesterol, during expansion, 0.5 mM NAC, 0.0 mM control 40.7): 39.7 h
- Average Doubling Time ([2]; Invitrogen CD Hybridoma Medium supplemented with cholesterol, during expansion, 1.0 mM NAC, 0.0 mM control 40.7): 37.5 h
- Average Doubling Time ([2]; Invitrogen CD Hybridoma Medium supplemented with cholesterol, during expansion, 2.0 mM NAC, 0.0 mM control 40.7): 35.7 h
- cell growth [2, 8]: increases
- cell viability [2, 8]: increases
- cell doubling time at vial thaw (NS0 Null Cell Line [3]; APF media 2, 0.5 mM NAC): 36.8 h
- cell doubling time at vial thaw (NS0 Null Cell Line [3]; APF media 2, 1.0 mM NAC): 38.4 h
- cell doubling time at vial thaw (NS0 Null Cell Line [3]; APF media 2, 1.5 mM NAC): 57.9 h
- cell growth (NS0 Null Cell Line [3]; [9]): increased
- cell viability (NS0 Null Cell Line [3]; [9]): improved
- average cell doubling time at vial thaw ([4]; APF media 1, 0.5 mM NAC, control medium 44.6 hours): 39.6 h
- average cell doubling time at vial thaw ([4]; APF media 1, 1.0 mM NAC, control medium 44.6 hours): 41.6 h
- average cell doubling time at vial thaw ([4]; APF media 1, 2.5 mM NAC, control medium 44.6 hours): 37.5 h
- average cell doubling time at vial thaw ([4]; APF media 2, 0.5 mM NAC, control medium 77.0 hours): 57.7 h
- average cell doubling time at vial thaw ([4]; APF media 2, 1.0 mM NAC, control medium 77.0 hours): 37.0 h
- average cell doubling time at vial thaw ([4]; APF media 2, 2.0 mM NAC, control medium 77.0 hours): 39.7 h
- average cell doubling time at vial thaw ([4]; CD Hybridoma medium (Gibco) + 1x Cholesterol Lipid Concentrate, 0.5 mM NAC, control medium 35.5 hours): 34.7 h
- average cell doubling time at vial thaw ([4]; CD Hybridoma medium (Gibco) + 1x Cholesterol Lipid Concentrate, 1.0 mM NAC, control medium 35.5 hours): 30.6 h
- average cell doubling time at vial thaw ([4]; CD Hybridoma medium (Gibco) + 1x Cholesterol Lipid Concentrate, 2.0 mM NAC, control medium 35.5 hours): 30.9 h
- cell growth [4, 10]: increases
- cell viability [4, 10]: increases
- average cell doubling time at vial thaw ([5]; APF media 1, 1.5 mM NAC): 55.6 h
- average cell doubling time at vial thaw ([5]; APF media 1, 2.0 mM NAC): 48.4 h
- average cell doubling time at vial thaw ([5]; APF media 1, 2.5 mM NAC): 53.9 h
- cell doubling time at vial thaw ([5]; APF media 2, 1.5 mM NAC): 47.5 h
- cell doubling time at vial thaw ([5]; APF media 2, 2.0 mM NAC): 56.9 h
- cell doubling time at vial thaw ([5]; APF media 2, 2.5 mM NAC): 47.7 h
- cell growth [5, 11]: increases
- cell viability [5, 11]: increases
- Average Doubling Time (NS0 Null Cell Line [6]; 0.5 mM NAC): 26.4 h
- Average Doubling Time (NS0 Null Cell Line [6]; 1.0 mM NAC): 26.4 h
- Average Doubling Time (NS0 Null Cell Line [6]; 1.5 mM NAC): 26.2 h
- cell growth (NS0 Null Cell Line [6]; during expansion, 0.5 mM to 1.5 mM NAC, APF medium 2): increased
- cell viability (NS0 Null Cell Line [6]; during expansion, about 0.5 mM to about 2.0 mM NAC, statement covers three NS0 cell lines in three media): increased
